Molecular target: T1, ctdWDR91 (Homo sapiens, UniProt A4D1P6)
T1 sequence (A4D1P6 392-747): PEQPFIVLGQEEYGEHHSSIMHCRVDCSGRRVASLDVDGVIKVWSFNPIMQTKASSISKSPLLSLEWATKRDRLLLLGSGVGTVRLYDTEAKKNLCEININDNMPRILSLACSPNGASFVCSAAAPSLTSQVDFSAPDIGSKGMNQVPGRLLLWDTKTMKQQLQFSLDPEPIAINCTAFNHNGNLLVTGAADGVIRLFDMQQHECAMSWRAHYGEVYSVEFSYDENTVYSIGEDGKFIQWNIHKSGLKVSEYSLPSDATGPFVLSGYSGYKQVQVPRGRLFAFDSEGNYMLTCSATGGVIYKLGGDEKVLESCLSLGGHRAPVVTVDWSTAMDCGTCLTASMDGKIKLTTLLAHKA
Experiment: biochemical

| Compound | Kd |
| --- | --- |
| Cc1[nH]c2ccccc2c1CC(=O)N(C)C1CCN(C2CC2)C1 (stereo not drawn) [MRGG045290a] | > 45 µM |
| CNC(=O)c1cccnc1N1C[C@@H]2CN(C)C[C@]2(C)C1 [MRGG045301a] | > 45 µM |
| C[C@H](NC1CCN(C2CC2)C1)c1cccc2cnccc12 (stereo partly drawn) [MRGG045313a] | > 45 µM |
| COC(=O)c1cccc(-c2cccc(NC3CCN(C4CC4)C3)c2)c1 (stereo not drawn) [MRGG045314a] | > 45 µM |
| Cc1ccc(C(=O)N(C)C)cc1-c1cccc(N2CCCC2)c1 [MRGG045315a] | > 45 µM |
| CN1C(=O)CC(C(=O)NCc2ccc(O)c(O)c2)C1c1ccc(Cl)c(Cl)c1 (stereo not drawn) [MRGG045316a] | > 45 µM |
| CC1(C)CN(C(=O)c2snc(O)c2Cl)c2ccc(Cl)cc21 [MRGG045317a] | > 45 µM |
| CNC(=O)c1ccc(NC2CC3CCC(C2)N3C)nc1 (stereo not drawn) [MRGG045318a] | > 45 µM |
| COc1cccc([C@@H]2[C@@H](NC3CCN(C4CC4)C3)CCN2C2CC2)c1 (stereo partly drawn) [MRGG045319a] | > 45 µM |
| O=C(c1ccccc1)N1CCC(CN(C2CC2)C2CC2)C1 (stereo not drawn) [MRGG045320a] | > 45 µM |
| CCCC(NC(=O)c1cc(O)c(O)cc1C)C(=O)N(C)C (stereo not drawn) [MRGG045321a] | > 45 µM |
| Cc1cc(O)c(O)cc1C(=O)NC1(c2cccc(C#N)c2)CCC1 [MRGG045322a] | > 45 µM |
| CC1CC(NC(=O)c2c[nH]c3cccc(Cl)c23)CN1C1CC1 (stereo not drawn) [MRGG045323a] | > 45 µM |
| COc1ccnc(N(C)C(=O)CCn2cccc2)n1 [MRGG045324a] | > 45 µM |
| Cc1cc(OCc2ccccc2)nc(N(C)C2CCN(C3CC3)C2)n1 (stereo not drawn) [MRGG045325a] | > 45 µM |
| CN1CC(N(C)C(=O)c2cc(-n3cccc3)ccn2)C1 [MRGG045326a] | > 45 µM |
| Cc1ccc(CN2CCC(CN(C)C3CC3)C2)s1 (stereo not drawn) [MRGG045327a] | > 45 µM |

Now from value to compound:

| Kd | Compound |
| --- | --- |
| > 45 µM | CC(C)(C)OC(=O)NCc1ccc(C(=O)NC2CCN(c3ccc(Cl)cc3)C2)cc1 (stereo not drawn) [MRGG045288a] |
| > 45 µM | N#Cc1cc(C(F)(F)F)cc(N2CCCN(C3CC3)CC2)n1 [MRGG045289a] |
| > 45 µM | Cc1ccccc1CN1CC(=O)N(CC2CCN(c3ccc(F)cc3)C2)C1=O (stereo not drawn) [MRGG045291a] |
| > 45 µM | CC1CN(C2CC2)CC1NC(=O)CCCCc1c[nH]c2ccccc12 (stereo not drawn) [MRGG045292a] |
| > 45 µM | CN(C(=O)c1c(C2CC2)nc2sccn12)C1CCN(C2CC2)C1 (stereo not drawn) [MRGG045293a] |
| > 45 µM | Cc1cccc(C#CCN2C[C@@H]3C[C@H]2CN3C2CC2)c1 [MRGG045294a] |
| > 45 µM | CN1CCC(O)(CNC(=O)c2cnc3cc[nH]c3c2)C1 (stereo not drawn) [MRGG045295a] |
| > 45 µM | O=C(NCc1ccc2cnccc2c1)c1snc(O)c1Cl [MRGG045296a] |
| > 45 µM | N#Cc1cccc2c1CCN(C(=O)NCC1CCN(c3ccc(Cl)cc3)C1)C2 (stereo not drawn) [MRGG045297a] |
| > 45 µM | Cc1cc(N2CCC(COC(=O)C3COc4ccccc43)C2)ccc1F (stereo not drawn) [MRGG045298a] |
| > 45 µM | Cc1ccc(C(=O)NC2CC2)cc1NCc1cc(C#N)cc(C#N)c1 [MRGG045299a] |
| > 45 µM | N#Cc1ccc2c(c1)CCCCC2NCC1CCN(C2CC2)C1 (stereo not drawn) [MRGG045300a] |
| > 45 µM | CN(C(=O)Cc1coc2ccccc12)C1CCN(C(=O)OC(C)(C)C)C1 (stereo not drawn) [MRGG045302a] |
| > 45 µM | CN(Cc1ccccc1OCc1ccccc1F)C1CCN(C2CC2)C1 (stereo not drawn) [MRGG045303a] |
| > 45 µM | C[C@@H]1CN(S(=O)(=O)c2ccc3ncsc3c2)[C@@H](C)CN1C [MRGG045304a] |
| > 45 µM | O=C(Cc1ccc(O)c(O)c1)NC(CC1CC1)c1ccc(Cl)cc1 (stereo not drawn) [MRGG045306a] |
| > 45 µM | C[C@H]1C(=O)N(CCN2CCc3ccccc32)C(=O)N1C [MRGG045307a] |
| > 45 µM | CS(=O)(=O)N1CCC(CN(Cc2cccc(F)c2)C2CC2)C1 (stereo not drawn) [MRGG045308a] |
| > 45 µM | CN(Cc1ccccc1-n1cccc1)C(=O)C1CCCN1C1CC1 (stereo not drawn) [MRGG045309a] |
| > 45 µM | OC1CN(C2CC2)CC1N1CCc2ccccc2C1 (stereo not drawn) [MRGG045310a] |
| > 45 µM | c1ccc(-n2ncc3c(NCC4CCN(C5CC5)C4)ncnc32)cc1 (stereo not drawn) [MRGG045311a] |
| > 45 µM | CN(C1CCN(C2CC2)C1)S(=O)(=O)c1cccc2ccoc12 (stereo not drawn) [MRGG045312a] |

Reference: article doi:10.1101/2023.08.21.552681v1 (biorxiv, 2023)
